According to patent US20230104578A1, “ANTI-ADRENOMEDULLIN (ADM) ANTIBODY OR ANTI-ADM ANTIBODY FRAGMENT OR ANTI-ADM NON-IG SCAFFOLD FOR USE IN THERAPY OR PREVENTION OF SHOCK” (ADRENOMED AG, priority 2020, published 2023):

Assays:
endotoxemic rats = details: pre-treatment; cited from earlier work
[1] = tested on: patients with septic shock; test: AdrenOSS-2 phase II clinical trial in septic shock with elevated adrenomedullin; assay type: in vivo, human
Text: AdrenOSS-2 is a double-blind, placebo-controlled, randomized, multicenter, proof of concept and dose-finding phase II clinical trial to investigate the safety, tolerability and efficacy of the N-terminal ADM antibody named Adrecizumab in patients with septic shock and elevated adrenomedullin (Geven et al. BMJ Open 2019;9:e024475). In total, 301 patients with septic shock and bio-ADM concentration >70 pg/mL were randomized (2:1:1) to treatment with a single intravenous infusion over approximately 1 hour with either placebo (n=152), adrecizumab 2 ng/kg (n=72) or adrecizumab 4 ng/kg (n=77). All-cause mortality within 28 (90) days after inclusion was 25.8% (34.8%). Mean age was 68.4 years and 61% were male. For the per protocol analysis, n=294 patients remained eligible, and 14-day all-cause mortality rate was 18.5%.
In patients treated with Adrecizumab (both doses combined, per protocol population), a trend to lower short term mortality (14 days post admission) was observed compared to placebo (Hazard ratio (HR) 0.701 [0.408-1.21], p=0.100) (FIG. 8).
No such interaction was detected which in other words means, that the beneficial treatment effect was detectable for all patients independent of their pre-dose bio-ADM concentration.
This is further illustrated in Kaplan Meier Plots, where the patient populations were separated by their pre-dose bio-ADM concentration (below/above bio-ADM median) (see FIG. 11a and FIG. 11b).

[2] = tested on: mice with CLP-induced sepsis; details: pre-treatment; cited from earlier work

Adrecizumab: humanized version of an N-terminal anti-ADM antibody; heavy chain SEQ ID NO: 32, light chain SEQ ID NO: 33
renal vascular leakage (endotoxemic rats): attenuated renal vascular leakage
HR, 14-day mortality vs placebo ([1]; DPP3 above 50 ng/mL, n=44): 1.69
HR, 14-day mortality vs placebo ([1]; pre-dose DPP3 < 50 ng/mL, n=244): 0.426
HR, 14-day mortality vs placebo ([1]; pre-dose DPP3 < 40, n=227): 0.385
HR, 14-day mortality vs placebo ([1]; pre-dose DPP3 < 60, n=254): 0.449
HR, 14-day mortality vs placebo ([1]; pre-dose DPP3 < 70, n=261): 0.546
HR, 14-day mortality vs placebo ([1]; pre-dose DPP3 < 90, n=273): 0.606
renal vascular leakage [2]: attenuated renal vascular leakage
